Source: US4226610A, “Herbicidal compounds, preparation thereof and herbicides containing the same” (Meiji Selka Kaisha, Ltd., priority 1978, dated 1980)
Structures can show the parent of a compound that is named as a salt.

Assays:
[1] = test system: lace shrub; assay: Experiment 3 foliar application to naturally growing shrubs; format: in vivo, Stephanandra incisa Zabel; details: for Reproduction-inhibiting: after 3 months; for Killing index: after 30 days
Excerpt: (§1) The detail of the assessment made in the following Experiments of the invention was as follows:
(§2) Four months after treatment, evaluation was made for inhibition of reproduction expressed in terms of symbols ranging from (-) to (+++) where (-) means no reproduction, namely complete suppression of reproduction, (±) remarkable suppression of reproduction; (+) considerable suppression of reproduction; (++) medium supprestion of reproduction; and (+++) no suppression of reproduction.
(§3) The compounds of the invention and other compounds listed in Table 5. were diluted to prescribed concentrations and sprayed onto naturally growing shrubs by foliar application in an amount of 150 liter per 10 are.
(§4) 0.1% of octylphenyl polyoxyethanol was added as the surfactant. The killing index (0, no effect; 5, death) after 1 month and 3 months, and the reproduction-inhibiting effect (-, no reproduction; +++, maximum reproduction) after 3 months were determined.

[2] = test system: eulalia; assay: Experiment 2 foliar application in Japanese cypress afforested land; format: in vivo, Miscanthus sinensis Andress.; set-up: key: 0 = no effect, 5 = death; details: 0.125%
Procedure: as §1
(§5) The compounds of the invention and other compounds listed in Table 4. were diluted to prescribed concentrations and sprayed to shrubs by foliar application in a Japanese cypress afforested land in an amount of 150 liter per 10 are.
(§6) After 30 days and 3 months, the killing index (0, no effect; 5, death) was determined.
(§7) The heights of plants were 50-70 cm. for Japanese cypress, about 50 cm. for chestnut, 50-90 cm. for miyakozasa, about 100 cm. for eulalia and 70-100 cm. for kumaichigo, respectively.

[3] = test system: Japanese bush cranberry; assay: Experiment 3 foliar application to naturally growing shrubs; format: in vivo, Viburnum dilatatum Thunb.; details: for Reproduction-inhibiting: after 3 months
Excerpt: as §1, §2, §3, §4

[4] = test system: Japanese prickly ash; assay: as above; format: in vivo, Xanthoxylum piperitum DC.; details: after 3 months
Excerpt: as §1, §2, §3, §4

[5] = test system: oak; assay: as above; format: in vivo, Quercus serrata Thunb; details: after 3 months
Excerpt: as §1, §2, §3, §4

[6] = test system: yabugarashi; assay: Experiment 1 foliar application to naturally growing weeds; format: in vivo, Cayratia japonica Houtt.; details: 4 months
Excerpt: as §1, §2
(§8) The compounds of the invention and other compounds for comparison listed in Table 3 were diluted to prescribed concentrations and sprayed to naturally growing weeds by foliar application in an amount of 150 liter per 10 are.
(§9) 0.1% of octylphenyl polyoxyethanol was added as a surfactant.
(§10) The killing index (0, no effect, 5, death) after 21 days, and the reproduction-inhibiting effect (-, no reproduction; +++, maximum reproduction) after 2 months (manna grass and cockspar grass) and 4 months (other weeds) were determined.

[7] = test system: chigaya; assay: as above; format: in vivo, Imperata cylindrica Beauv.; details: 4 months
Excerpt: as §1, §2, §8, §9, §10

[8] = test system: manna grass; assay: as above; format: in vivo, Digitaria adsceudes Henr.; details: for Reproduction-inhibiting effect: 2 months
Excerpt: as §1, §2, §8, §9, §10

[9] = test system: hedge bindweed; assay: as above; format: in vivo, Calystegis hederacea Wall.; details: 4 months
Excerpt: as §1, §2, §8, §9, §10

[10] = test system: warunasubi; assay: as above; format: in vivo, Solanum carolinensis L.; details: 4 months
Excerpt: as §1, §2, §8, §9, §10

[11] = test system: kumaichigo; assay: Experiment 2 foliar application in Japanese cypress afforested land; format: in vivo, Rubus crataegifolius Bunge; details: 0.125%, after 30 days
Procedure: as §1, §5, §6, §7

[12] = test system: white clover; assay: Experiment 1 foliar application to naturally growing weeds; format: in vivo, Trifolium repens L.; details: for Reproduction-inhibiting effect: 4 months
Excerpt: as §1, §2, §8, §9, §10

[13] = test system: azumanezasa; assay: as above; format: in vivo, Pleioblastus Chino Makino; details: for Reproduction-inhibiting effect: 4 months; for Killing index of Upperground parts: 21 days
Excerpt: as §1, §2, §8, §9, §10

[14] = test system: purple nutsedge; assay: as above; format: in vivo, Cyperus rotundus L.; details: 4 months
Excerpt: as §1, §2, §8, §9, §10

[15] = test system: cockspar grass; assay: as above; format: in vivo, Echinochloa Crusgalli P. Beauv.; details: for Reproduction-inhibiting effect: 2 months
Excerpt: as §1, §2, §8, §9, §10

[16] = test system: yamazakura; assay: Experiment 3 foliar application to naturally growing shrubs; format: in vivo, Prunus donarium Sieb. var. spontanae Makino; details: after 3 months
Excerpt: as §1, §2, §3, §4

[17] = test system: torch azalea; assay: as above; format: in vivo, Rhododendoron Kaempferi Planch.; details: after 3 months
Excerpt: as §1, §2, §3, §4

[18] = test system: kiichigo; assay: as above; format: in vivo, Rubus palmatsu Thunb. forma coptophyllus Makino
Excerpt: as §1, §2, §3, §4

[19] = test system: water hyacinth; assay: Experiment 5 foliar application to water hyacinths; format: in vivo, Eichhornia crassipes Solms; details: 3 months
Excerpt: as §1, §2
Water was placed in 20 cm.×30 cm. plastic vessels and a liquid fertilizer was added thereto. Two water hyacinths were floated in each vessel.
0.1 or 0.2% aqueous solutions of each of the compounds of the invention listed in Table 7 were sprayed by foliar application in an amount of 100 liter per 10 are. As a surfactant, 0.1% of octylphenyl polyoxyethanol was added.
The killing index (0, no effect; 5, death) after 21 days and 3 months, and the reproduction-inhibiting effect (-, no reproduction; +++, maximum reproduction) after 3 months were determined.

[20] = 0.05%, after 3 months, monosodium salt

`CP(=O)(O)CC[C@H](N)C(=O)O` [L-2-Amino-4-methylphosphinobutanoic acid monodiethanolammoni] [L-2-Amino-4-methylphosphinobutanoic acid monodiethanolammonium salt] was tested, and the Reproduction-inhibiting ([1]; 0.05%) was “++”, the Killing index ([1]; 0.05%) was 3.5 and the Reproduction-inhibiting ([1]; 0.1%) was “-”. The Reproduction-inhibiting ([1]; 0.2%) was “-”, the Killing index ([2]; after 30 days) was 3.5 and the Reproduction-inhibiting ([3]; 0.05%) was “+++”. The Reproduction-inhibiting ([3]; 0.1%) was “++”, the Killing index ([3]; 0.1%, after 30 days) was 4.5 and the Reproduction-inhibiting ([3]; 0.2%) was “-”. For the same compound, the Reproduction-inhibiting ([4]; 0.05%) was “+++”, the Killing index ([4]; 0.1%) was 4.5 and the Reproduction-inhibiting ([4]; 0.1%) was “±”. The Reproduction-inhibiting ([4]; 0.2%) was “-”, the Reproduction-inhibiting ([5]; 0.05%) was “++” and the Reproduction-inhibiting ([5]; 0.1%) was “-”. For the same compound, the Reproduction-inhibiting ([5]; 0.2%) was “-”, the Reproduction-inhibiting effect ([6]; 0.05%) was “++” and the Reproduction-inhibiting effect ([6]; 0.1%) was “+”. For the same compound, the Reproduction-inhibiting effect ([6]; 0.2%) was “±”, the Reproduction-inhibiting effect ([7]; 0.05%) was “++” and the Reproduction-inhibiting effect ([7]; 0.1%) was “-”. For the same compound, the Reproduction-inhibiting effect ([7]; 0.2%) was “-”, the Reproduction-inhibiting effect ([8]; 0.05%) was “++” and the Reproduction-inhibiting effect ([8]; 0.1%) was “-”. For the same compound, the Reproduction-inhibiting effect ([8]; 0.2%) was “-”, the Reproduction-inhibiting effect ([9]; 0.05%) was “+++” and the Reproduction-inhibiting effect ([9]; 0.1%) was “++”. The Reproduction-inhibiting effect ([9]; 0.2%) was “+”, the Reproduction-inhibiting effect ([10]; 0.05%) was “+++” and the Reproduction-inhibiting effect ([10]; 0.1%) was “+”. For the same compound, the Reproduction-inhibiting effect ([10]; 0.2%) was “±”, the Killing index [11] was 4.5 and the Reproduction-inhibiting effect ([12]; 0.05%) was “+++”. For the same compound, the Reproduction-inhibiting effect ([12]; 0.1%) was “-”, the Reproduction-inhibiting effect ([12]; 0.2%) was “-” and the Reproduction-inhibiting effect ([13]; 0.05%) was “++”. For the same compound, the Reproduction-inhibiting effect ([13]; 0.1%) was “-”, the Reproduction-inhibiting effect ([13]; 0.2%) was “-” and the Reproduction-inhibiting effect ([14]; 0.05%) was “+++”. For the same compound, the Reproduction-inhibiting effect ([14]; 0.1%) was “+”, the Reproduction-inhibiting effect ([14]; 0.2%) was “±” and the Reproduction-inhibiting effect ([15]; 0.05%) was “++”. The Reproduction-inhibiting effect ([15]; 0.1%) was “-”, the Reproduction-inhibiting effect ([15]; 0.2%) was “-” and the Reproduction-inhibiting ([16]; 0.05%) was “++”. For the same compound, the Reproduction-inhibiting ([16]; 0.1%) was “-”, the Reproduction-inhibiting ([16]; 0.2%) was “-” and the Reproduction-inhibiting ([17]; 0.05%) was “+++”. The Reproduction-inhibiting ([17]; 0.1%) was “-”, the Reproduction-inhibiting ([17]; 0.2%) was “-” and the Reproduction-inhibiting ([18]; 0.05%, after 3 months) was “++”. The Killing index ([18]; 0.05%, after 30 days) was 3.5, the Reproduction-inhibiting ([18]; 0.1%, after 3 months) was “-” and the Reproduction-inhibiting ([18]; 0.2%, after 3 months) was “-”.

For `CP(=O)(O)CC[C@H](N)C(=O)O` [L-2-Amino-4-methylphosphinobutanoic acid monosodium salt], the Reproduction-inhibiting ([1]; 0.05%, monosodium salt) was “++”, the Killing index ([1]; 0.05%, monosodium salt) was 3.5 and the Reproduction-inhibiting ([1]; 0.1%) was “-”. For the same compound, the Reproduction-inhibiting ([1]; 0.2%) was “-”, the Killing index ([2]; after 3 months, monosodium salt) was 4.5 and the Killing index ([2]; after 30 days, monosodium salt) was 3.5. For the same compound, the Reproduction-inhibiting ([3]; 0.05%, monosodium salt) was “+++”, the Reproduction-inhibiting ([3]; 0.1%, monosodium salt) was “++” and the Reproduction-inhibiting ([3]; 0.2%) was “-”. For the same compound, the Reproduction-inhibiting ([4]; 0.05%, monosodium salt) was “+++”, the Reproduction-inhibiting ([4]; 0.1%, monosodium salt) was “+” and the Reproduction-inhibiting ([4]; 0.2%) was “-”. For the same compound, the Reproduction-inhibiting ([5]; 0.05%, monosodium salt) was “++”, the Reproduction-inhibiting ([5]; 0.1%) was “-” and the Reproduction-inhibiting ([5]; 0.2%) was “-”. For the same compound, the Reproduction-inhibiting effect ([6]; 0.05%, monosodium salt) was “++”, the Reproduction-inhibiting effect ([6]; 0.1%, monosodium salt) was “+” and the Reproduction-inhibiting effect ([6]; 0.2%, monosodium salt) was “±”. For the same compound, the Reproduction-inhibiting effect ([7]; 0.05%, monosodium salt) was “++”, the Reproduction-inhibiting effect ([7]; 0.1%) was “-” and the Reproduction-inhibiting effect ([7]; 0.2%) was “-”. The Reproduction-inhibiting effect ([8]; 0.05%, monosodium salt) was “++”, the Reproduction-inhibiting effect ([8]; 0.1%, monosodium salt) was “±” and the “Killing index of Upperground parts” value ([8]; 0.1%, 21 days, monosodium salt) was 4.5. For the same compound, the Reproduction-inhibiting effect ([8]; 0.2%) was “-”, the Reproduction-inhibiting effect ([9]; 0.05%, monosodium salt) was “+++” and the Reproduction-inhibiting effect ([9]; 0.1%, monosodium salt) was “++”. The Reproduction-inhibiting effect ([9]; 0.2%, monosodium salt) was “+”, the Reproduction-inhibiting effect ([19]; 0.1%, listed as L-AMPB monosodium salt, monosodium salt) was “±” and the Reproduction-inhibiting effect ([19]; 0.2%) was “-”. For the same compound, the Reproduction-inhibiting effect ([10]; 0.05%, monosodium salt) was “+++”, the Reproduction-inhibiting effect ([10]; 0.1%, monosodium salt) was “+” and the Reproduction-inhibiting effect ([10]; 0.2%, monosodium salt) was “±”. The Killing index ([11]; monosodium salt) was 4.5, the Reproduction-inhibiting effect ([12]; 0.05%, monosodium salt) was “+++” and the Reproduction-inhibiting effect ([12]; 0.1%, monosodium salt) was “+”. For the same compound, the “Killing index of Upperground parts” value ([12]; 0.1%, 21 days, monosodium salt) was 4.5, the Reproduction-inhibiting effect ([12]; 0.2%) was “-” and the Reproduction-inhibiting effect ([13]; 0.05%, monosodium salt) was “++”. The “Killing index of Upperground parts” value ([13]; 0.05%, monosodium salt) was 2.5, the Reproduction-inhibiting effect ([13]; 0.1%) was “-” and the “Killing index of Upperground parts” value ([13]; 0.1%, monosodium salt) was 4.5. For the same compound, the Reproduction-inhibiting effect ([13]; 0.2%) was “-”, the Reproduction-inhibiting effect ([14]; 0.05%, monosodium salt) was “+++” and the Reproduction-inhibiting effect ([14]; 0.1%, monosodium salt) was “+”. The Reproduction-inhibiting effect ([14]; 0.2%, monosodium salt) was “±”, the Reproduction-inhibiting effect ([15]; 0.05%, monosodium salt) was “++” and the Reproduction-inhibiting effect ([15]; 0.1%, monosodium salt) was “±”. The “Killing index of Upperground parts” value ([15]; 0.1%, 21 days, monosodium salt) was 4.5, the Reproduction-inhibiting effect ([15]; 0.2%) was “-” and the Killing index ([16]; 0.05%, monosodium salt) was 1.5. The Reproduction-inhibiting ([16]; 0.05%, monosodium salt) was “++”, the Reproduction-inhibiting ([16]; 0.1%) was “-” and the Reproduction-inhibiting ([16]; 0.2%) was “-”. The Reproduction-inhibiting ([17]; 0.05%, monosodium salt) was “+++”, the Reproduction-inhibiting ([17]; 0.1%) was “-” and the Reproduction-inhibiting ([17]; 0.2%) was “-”. For the same compound, the Killing index [18, 20] was 1.5, the Reproduction-inhibiting [18, 20] was “++” and the Killing index ([18]; 0.05%, after 30 days, monosodium salt) was 3.5. The Reproduction-inhibiting ([18]; 0.1%, after 3 months) was “-” and the Reproduction-inhibiting ([18]; 0.2%, after 3 months) was “-”.
